These are literature values, as cited in article PMC3356383, “Efficacious Intermittent Dosing of a Novel JAK2 Inhibitor in Mouse Models of Polycythemia Vera” (PLoS ONE, 2012).

The subject of this data set is murine model of PV. More on the design: method as in PMID 18394554. The note with it: 42 days of continuous treatment; cited from earlier work.

Each structure is given as a SMILES string.

On to `Cc1cnc(Nc2ccc(OCCN3CCCC3)cc2)nc1Nc1cccc(S(=O)(=O)NC(C)(C)C)c1` [TG101348], for which the Hematocrit reduction is given as 18%.
